± gives the expanded uncertainty stated by the source.
Assay: xn = mol fraction of the nth substance listed
Details: 101 kPa, Liquid

CC[S+]([O-])CC [diethyl sulfoxide] + O
mass density [kg/m3]
Details | 298.15 K | 303.15 K | 308.15 K | 313.15 K | 318.15 K | 323.15 K | 328.15 K | 333.15 K | 338.15 K | 343.15 K
x1 = 0.0997 | 1027.6 ± 1.7 | 1024.2 ± 1.7 | 1020.7 ± 1.6 | 1017.1 ± 1.6 | 1013.4 ± 1.5 | 1009.6 ± 1.4 | 1005.8 ± 1.4 | 1001.8 ± 1.3 | 997.8 ± 1.3 | 993.7 ± 1.4
x1 = 0.1996 | 1038.6 ± 1.9 | 1034.2 ± 1.8 | 1029.8 ± 1.8 | 1025.4 ± 1.7 | 1020.9 ± 1.6 | 1016.3 ± 1.5 | 1011.8 ± 1.5 | 1005.9 ± 1.4 | 1001.3 ± 1.3 | 997.1 ± 1.3
x1 = 0.2517 | 1038.4 ± 1.9 | 1033.7 ± 1.8 | 1029.6 ± 1.8 | 1025 ± 1.7 | 1020.5 ± 1.6 | 1015.8 ± 1.5 | 1011.2 ± 1.5 | 1006.4 ± 1.4 | 1001.7 ± 1.3 | 996.9 ± 1.3
x1 = 0.2978 | 1037.8 ± 1.9 | 1033.3 ± 1.8 | 1028.8 ± 1.7 | 1024.2 ± 1.7 | 1019.6 ± 1.6 | 1015 ± 1.5 | 1010.3 ± 1.5 | 1005.6 ± 1.4 | 1000.8 ± 1.3 | 996 ± 1.4
x1 = 0.3481 | 1035.8 ± 1.9 | 1031.4 ± 1.8 | 1026.8 ± 1.7 | 1022.2 ± 1.6 | 1017.6 ± 1.6 | 1013 ± 1.5 | 1008.3 ± 1.4 | 1003.6 ± 1.3 | 998.9 ± 1.3 | 994.1 ± 1.4
x1 = 0.3946 | 1034.7 ± 1.8 | 1030.2 ± 1.8 | 1025.7 ± 1.7 | 1021.2 ± 1.6 | 1016.6 ± 1.6 | 1012 ± 1.5 | 1007.3 ± 1.4 | 1002.6 ± 1.3 | 997.8 ± 1.3 | 993 ± 1.4
x1 = 0.4496 | 1031.6 ± 1.8 | 1027.2 ± 1.7 | 1022.7 ± 1.7 | 1018.3 ± 1.6 | 1013.8 ± 1.5 | 1009.2 ± 1.4 | 1004.5 ± 1.4 | 999.9 ± 1.3 | 995.2 ± 1.4 | 990.5 ± 1.4
x1 = 0.5053 | 1029.6 ± 1.8 | 1025.1 ± 1.7 | 1020.6 ± 1.6 | 1016.2 ± 1.5 | 1011.7 ± 1.5 | 1007.1 ± 1.4 | 1002.5 ± 1.3 | 997.9 ± 1.3 | 993.2 ± 1.4 | 988.5 ± 1.5
x1 = 0.5962 | 1026.4 ± 1.7 | 1022.1 ± 1.6 | 1017.6 ± 1.6 | 1013.2 ± 1.5 | 1008.7 ± 1.4 | 1004.2 ± 1.4 | 999.6 ± 1.3 | 995 ± 1.4 | 990.4 ± 1.4 | 985.7 ± 1.5
x1 = 0.6971 | 1021.9 ± 1.6 | 1017.5 ± 1.6 | 1013.1 ± 1.5 | 1008.7 ± 1.4 | 1004.3 ± 1.4 | 999.8 ± 1.3 | 995.3 ± 1.4 | 990.8 ± 1.4 | 986.2 ± 1.5 | 981.7 ± 1.6
x1 = 0.8061 | 1018.2 ± 1.6 | 1013.9 ± 1.5 | 1009.6 ± 1.4 | 1005.2 ± 1.4 | 1000.8 ± 1.3 | 996.4 ± 1.3 | 991.9 ± 1.4 | 987.4 ± 1.5 | 982.9 ± 1.6 | 978.4 ± 1.6
x1 = 0.8946 | 1015.3 ± 1.5 | 1011 ± 1.5 | 1006.7 ± 1.4 | 1002.3 ± 1.3 | 997.9 ± 1.3 | 993.5 ± 1.4 | 989.1 ± 1.5 | 984.7 ± 1.5 | 980.2 ± 1.6 | 975.7 ± 1.7
x1 = 1 | 1010.2 ± 1.4 | 1005.8 ± 1.4 | 1001.4 ± 1.3 | 997 ± 1.3 | 992.6 ± 1.4 | 988.2 ± 1.5 | 983.9 ± 1.5 | 979.5 ± 1.6 | 975.1 ± 1.7 | 970.6 ± 1.8

Reference: the NIST ThermoML archive (doi:10.1016/j.jct.2004.11.017)
